Test results reported in patent publication US9439979B2, “Epidermal growth factor receptor (EGFR) and methods of use in adenoviral-associated virus type 6 (AAV6) transduction” (priority 2010, dated 2016).

How the values were obtained:
HEK293T cells = format: cell-based, human; details: inhibitor 10 μm; for effect on AAV2 transduction of HEK293T cells: same conditions
Procedure: (§1) AAV transduction and pharmacological inhibition. The 32D and 32D-EGFR cells were transduced with 1.0E4 genomic particle (gp)/cell with each of the AAV serotypes tested. Cells were analyzed for GFP expression by FACS analysis at 96 hours posttransduction. The HEK293T, HN12 and HEp-2 cells, shown to be permissive to AAV2 and/or AAV6, were used to evaluate the specific role of EGFR in AAV-mediated transduction. Cells were incubated at 37° C. in the presence or absence of AG1478 (10 μm) or gefitnib (10 μm) for 30 minutes prior to addition of AAV. AAV2 and AAV6 containing the CMV-NLS-eGFP construct were added at a concentration of 1.0×10^4 gp/ml for 90 minutes.

HN12 cells = assay: AAV transduction and pharmacological inhibition in HN12 cells; format: cell-based
Procedure: (§2) In vitro transduction of HEp-2 and HN12 cells with AAV2 and AAV6 in the presence or absence of the EGFR inhibitor, AG1478, was studied. […] Transduction of HN12 cells in the presence of AG1478 was reduced by 77% (***p<0.0005, n=3).
as §1
(§3) Increased expression of EGFR correlates with aggressive head and neck squamous cell carcinoma (HNSCC) tumor growth and resistance to treatment (Thariat, J., et al., Int. J. Clin. Oncol., 12: 99-110 (2007)). The utility of AAV6 to transduce and ablate specific HNSCCs presenting with elevated EGFR expression was assessed by gene-directed enzyme prodrug therapy. Two HNSCC cell lines, HN12 and HEp-2 were selected to represent polarities of EGFR expression.

HEp-2 cells = assay: AAV transduction and pharmacological inhibition in HEp-2 cells; format: cell-based
Procedure: as §2, §1, §3

Compound	effect on AAV2 transduction of HEK293T cells (HEK293T cells)	inhibition of AAV6 transduction of HEK293T cells (HEK293T cells; 30 minutes preincubation, AAV6-CMV-eGFP, FACS 48 hours)	reduction of AAV6 transduction of HN12 cells (HN12 cells; in the presence of AG1478 (10 μm), FACS 96 hours)	effect on AAV2-mediated transduction of HN12 cells (HN12 cells; presence or absence of AG1478)	effect on AAV6 transduction of HEp-2 cells (HEp-2 cells; in the presence of AG1478)	effect on AAV2-mediated transduction of HEp-2 cells (HEp-2 cells; presence or absence of AG1478)
COc1cc2ncnc(Nc3ccc(F)c(Cl)c3)c2cc1OCCCN1CCOCC1 [gefitinib]	unchanged	–	–	–	–	–
AG1478	unchanged	50%	77%	no significant (NS) difference	not altered	no significant (NS) difference
